Assay [1] relates to HCV replicon 1A. Briefly: Cell-based HCV Replicon Assay A, replicon 1A. A digest of the protocol: (§1)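 2000 cells/well; 10 serial dilutions, top concentration 333.3 nM to 1.667 nM; 0.5% DMSO, 5% FBS; 3 days; lysis; multiplex TaqMan RT-PCR (NS5B/Neo plus cyclophilin), RNA from linear Ct standard curves.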
In general terms: In antiviral work, replicon cells carry a viral genome segment that copies itself.

In assay [2] the test system is HCV replicon 1AY93H. Briefly: Cell-based HCV Replicon Assay A, replicon 1AY93H. The procedure, abridged:
as §1

Assay [3] concerns HCV replicon 2B. Kind of assay: Cell-based HCV Replicon Assay A, replicon 2B. A digest of the protocol:
as §1

The subject of assay [4] is HCV replicon 1AQ30D. Kind of assay: Cell-based HCV Replicon Assay B, replicon 1AQ30D. The procedure, abridged:
(§2)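 EC50 defined as the drug concentration giving a CT increase of 1 above projected baseline, from real-time RT-PCR of replicon RNA using genotype-specific primers and probes. Cells were seeded in 5% FBS, dosed after 24 h and incubated 3 days before lysis.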

The test system of assay [5] is HCV replicon 1B. Kind of assay: Cell-based HCV Replicon Assay B, replicon 1B. A digest of the protocol: as §2
Where [6] appears, read: read-out: 1A Y93H IC50, replicon 1AY93H.
Where [7] appears, read: Hepatitis C virus, read-out: 1A Q30D IC50 (nM), replicon 1AQ30D.
The mark [8] stands for this setting: Hepatitis C virus, read-out: 1A Y93H IC50 (nM), replicon 1AY93H.
The mark [9] stands for this setting: Hepatitis C virus, read-out: 2B IC50 (nM), replicon 2B.
The mark [10] stands for this setting: read-out: 1A Q30D IC50, replicon 1AQ30D.
Where [11] appears, read: replicon 1AY93H, read-out: 1A Y93H IC50.
[12] abbreviates: replicon 1AQ30D, read-out: 1A Q30D IC50.

Like-named read-outs stand apart in the source and are kept apart here.

The IC50 is the concentration that gives 50% inhibition.

Take `COC(=O)NC(C(=O)N1CCC[C@H]1c1ncc(-c2ccc3c(c2)cc2n3C(c3cnc(C(C)(C)O)s3)Oc3cc(-c4cnc([C@@H]5CCCN5C(=O)[C@@H](NC(=O)OC)C(C)C)[nH]4)cc(F)c3-2)[nH]1)C1C[C@@H](C)O[C@@H](C)C1` (single isomer, unassigned) [Compound 74]: the IC50 was found to be 3.6 pM in assay [1]; 0.0053 nM in assay [2] (setting [6]); 0.005 nM in assay [3] (read-out: 2B IC50, replicon 2B); 0.021 nM in assay [4] (setting [7]); 4 pM in assay [5].
In the case of `COC(=O)NC(C(=O)N1CCC[C@H]1c1ncc(-c2ccc3c(c2)cc2n3C(c3cnc(C4(C)CC4)s3)Oc3cc(-c4cnc([C@@H]5CCCN5C(=O)[C@@H](NC(=O)OC)C(C)C)[nH]4)cc(F)c3-2)[nH]1)C1C[C@@H](C)O[C@@H](C)C1` (single isomer, unassigned) [Compound 462], the IC50 in assay [1] turned out to be 3.5 pM; in assay [2] (setting [6]), 0.007 nM; in assay [3] (read-out: 2B IC50, replicon 2B), 0.007 nM; in assay [4] (setting [7]), 0.038 nM; in assay [5], 3.1 pM.
As for `COC(=O)N[C@H](C(=O)N1CCC[C@H]1c1ncc(-c2cc(F)c3c(c2)OC(c2cnc(C(C)C)s2)n2c-3cc3cc(-c4cnc([C@@H]5C[C@H]6C[C@H]6N5C(=O)[C@@H](NC(=O)OC)C(C)C)[nH]4)ccc32)[nH]1)C(C)C` (single isomer, unassigned) [Compound 89], the IC50 in assay [1] (Hepatitis C virus) was determined as 1.7 pM; in assay [2] (setting [8]) it was 0.0028 nM; in assay [3] (setting [9]) it was 0.029 nM; in assay [4] (setting [7]) it was 0.081 nM; in assay [5] (Hepatitis C virus) it was 3 pM.
The corresponding values for `COC(=O)N[C@H](C(=O)N1CCC[C@H]1c1ncc(-c2cc(F)c3c(c2)OC(c2cnc(C)s2)n2c-3cc3cc(-c4cnc([C@@H]5CCCN5C(=O)[C@@H](NC(=O)OC)C(C)C)[nH]4)ccc32)[nH]1)C(C)C` (mixture of isomers) [Compound 416] are 2.2 pM, 0.085 nM, 0.119 nM, 1.77 nM and 3 pM.
Take `CCCc1ncc(C2Oc3cc(-c4cnc([C@@H]5CCCN5C(=O)[C@@H](NC(=O)OC)C(C)C)[nH]4)cc(F)c3-c3cc4cc(-c5cnc([C@@H]6C[C@H]7C[C@H]7N6C(=O)C(NC(=O)OC)C6CCOC(C)(C)C6)[nH]5)ccc4n32)s1` (single isomer, unassigned) [Compound 106]: the IC50 was determined as 3.2 pM in assay [1]; 0.0336 nM in assay [2] (setting [6]); 0.067 nM in assay [3] (read-out: 2B IC50, replicon 2B); 0.284 nM in assay [4] (setting [10]); 5 pM in assay [5].
In the case of `COC(=O)NC(C(=O)N1CCC[C@H]1c1ncc(-c2ccc3c(c2)cc2n3C(c3cnc(CC(C)C)s3)Oc3cc(-c4cnc([C@@H]5CCCN5C(=O)[C@@H](NC(=O)OC)C(C)C)[nH]4)cc(F)c3-2)[nH]1)C1CCOC(C)(C)C1` (single isomer, unassigned) [Compound 545], the IC50 in assay [1] is 2.6 pM; in assay [2] (setting [6]), 0.004 nM; in assay [3] (read-out: 2B IC50, replicon 2B) it was 0.006 nM; in assay [4] (setting [10]), 0.015 nM; in assay [5] it was 2.8 pM.
Take `COC(=O)NC(C(=O)N1[C@@H]2C[C@@H]2C[C@H]1c1ncc(-c2ccc3c(c2)cc2n3C(c3cnc(CC(C)C)s3)Oc3cc(-c4cnc([C@@H]5CCCN5C(=O)[C@@H](NC(=O)OC)C(C)C)[nH]4)cc(F)c3-2)[nH]1)C1CCOC(C)(C)C1` (single isomer, unassigned) [Compound 439]: the half-maximal inhibitory concentration (IC50) came out at 2.7 pM in assay [1]; 0.004 nM in assay [2] (setting [11]); 0.006 nM in assay [3] (replicon 2B, read-out: 2B IC50); 0.018 nM in assay [4] (setting [12]); 2.1 pM in assay [5].
Regarding `COC(=O)NC(C(=O)N1CCC[C@H]1c1ncc(-c2ccc3c(c2)cc2n3C(c3cnc(CC(C)C)s3)Oc3cc(-c4cnc([C@@H]5CCCN5C(=O)[C@@H](NC(=O)OC)C(C)C)[nH]4)cc(F)c3-2)[nH]1)C1C[C@@H](C)O[C@@H](C)C1` (single isomer, unassigned) [Compound 547], the half-inhibitory concentration (IC50) in assay [1] was 2.8 pM; in assay [2] (setting [6]), 0.005 nM; in assay [3] (read-out: 2B IC50, replicon 2B) it was 0.006 nM; in assay [4] (setting [7]) it was 0.028 nM; in assay [5] (Hepatitis C virus), 1.8 pM.
For `COC(=O)NC(C(=O)N1CCC[C@H]1c1ncc(-c2ccc3c(c2)cc2n3C(c3cnc(C4CCC4)s3)Oc3cc(-c4cnc([C@@H]5CCCN5C(=O)[C@@H](NC(=O)OC)C(C)C)[nH]4)cc(C)c3-2)[nH]1)C1C[C@@H](C)O[C@@H](C)C1` (single isomer, unassigned) [Compound 219] the same measures were 2.7 pM, 0.013 nM, 0.003 nM, 0.096 nM and 4 pM.
As for `COC(=O)NC(C(=O)N1[C@@H]2C[C@@H]2C[C@H]1c1ncc(-c2ccc3c(c2)cc2n3C(c3cnc(C4CCC4)s3)Oc3cc(-c4cnc([C@@H]5CCCN5C(=O)[C@@H](NC(=O)OC)C(C)C)[nH]4)cc(C)c3-2)[nH]1)C1C[C@@H](C)O[C@@H](C)C1` (single isomer, unassigned) [Compound 222], the IC50 in assay [1] (Hepatitis C virus) is 2.7 pM; in assay [2] (setting [8]) it was 0.0059 nM; in assay [3] (setting [9]), 0.007 nM; in assay [4] (setting [7]), 0.044 nM; in assay [5] (Hepatitis C virus) it was 6 pM.
`COC(=O)N[C@H](C(=O)N1CCC[C@H]1c1ncc(-c2cc(F)c3c(c2)OC(c2cnc(CC(C)C)s2)n2c-3cc3cc(-c4cnc([C@@H]5CCCN5C(=O)[C@@H](NC(=O)OC)C(C)C)[nH]4)ccc32)[nH]1)C(C)C` (single isomer, unassigned) [Compound 514]: the IC50 was found to be 2.2 pM in assay [1]; 0.012 nM in assay [2] (setting [11]); 0.035 nM in assay [3] (replicon 2B, read-out: 2B IC50); 0.174 nM in assay [4] (setting [12]); 3 pM in assay [5].
For the compound `COC(=O)NC(C(=O)N1[C@@H]2C[C@@H]2C[C@H]1c1ncc(-c2ccc3c(c2)cc2n3C(c3cnc(C4(C)CC4)s3)Oc3cc(-c4cnc([C@@H]5CCCN5C(=O)[C@@H](NC(=O)OC)C(C)C)[nH]4)cc(F)c3-2)[nH]1)C1C[C@@H](C)O[C@@H](C)C1` (single isomer, unassigned) [Compound 463], the IC50 in assay [1] (Hepatitis C virus) turned out to be 2.6 pM; in assay [2] (setting [6]), 0.002 nM; in assay [3] (read-out: 2B IC50, replicon 2B), 0.007 nM; in assay [4] (setting [10]), 0.012 nM; in assay [5] (Hepatitis C virus), 2.8 pM.
The corresponding values for `COC(=O)NC(C(=O)N1CCC[C@H]1c1ncc(-c2ccc3c(c2)cc2n3C(c3cnc(C4(C)CC4)s3)Oc3cc(-c4cnc([C@@H]5CCCN5C(=O)[C@@H](NC(=O)OC)C(C)C)[nH]4)cc(F)c3-2)[nH]1)C1CCOC(C)(C)C1` (single isomer, unassigned) [Compound 457] are 3.3 pM, 0.007 nM, 0.005 nM, 0.07 nM and 3.6 pM.
Turning to `COC(=O)NC(C(=O)N1[C@@H]2C[C@@H]2C[C@H]1c1ncc(-c2ccc3c(c2)cc2n3C(c3cnc(C4(C)CC4)s3)Oc3cc(-c4cnc([C@@H]5CCCN5C(=O)[C@@H](NC(=O)OC)C(C)C)[nH]4)cc(F)c3-2)[nH]1)C1CCOC(C)(C)C1` (single isomer, unassigned) [Compound 467], the IC50 in assay [1] worked out at 3 pM; in assay [2] (setting [6]) it was 0.209 nM; in assay [3] (read-out: 2B IC50, replicon 2B), 0.158 nM; in assay [4] (setting [10]), 1.4 nM; in assay [5] it was 3.4 pM.
Regarding `COC(=O)N[C@H](C(=O)N1CCC[C@H]1c1ncc(-c2cc(F)c3c(c2)OC(c2cnc(C4CC4)s2)n2c-3c(F)c3cc(-c4cnc([C@@H]5CCCN5C(=O)[C@@H](NC(=O)OC)C5CCOCC5)[nH]4)ccc32)[nH]1)C(C)C` (single isomer, unassigned) [Compound 41], the IC50 in assay [1] (Hepatitis C virus) was 1.7 pM; in assay [2] (setting [6]) it was 0.126 nM; in assay [3] (read-out: 2B IC50, replicon 2B), 0.04 nM; in assay [4] (setting [10]), 1.01 nM; in assay [5] (Hepatitis C virus), 2 pM.
As to `COC(=O)N[C@H](C(=O)N1CCC[C@H]1c1ncc(-c2cc(F)c3c(c2)OC(c2cnc(-c4ccc(Cl)cc4)s2)n2c-3cc3cc(-c4cnc([C@@H]5CCCN5C(=O)[C@@H](NC(=O)OC)C(C)C)[nH]4)ccc32)[nH]1)C(C)C` (single isomer, unassigned) [Compound 53], the IC50 turned out to be 1.6 pM in assay [1] (Hepatitis C virus); 0.0022 nM in assay [2] (setting [6]); 0.004 nM in assay [3] (read-out: 2B IC50, replicon 2B); 0.07 nM in assay [4] (setting [7]); 1 pM in assay [5] (Hepatitis C virus).
For `CCCc1ncc(C2Oc3cc(-c4cnc([C@@H]5CCCN5C(=O)[C@@H](NC(=O)OC)C(C)C)[nH]4)cc(F)c3-c3cc4cc(-c5cnc([C@@H]6CCCN6C(=O)C(NC(=O)OC)C6CCOC(C)(C)C6)[nH]5)ccc4n32)s1` (single isomer, unassigned) [Compound 59], the IC50 came to 2.6 pM in assay [1]; 0.132 nM in assay [2] (setting [6]); 0.133 nM in assay [3] (read-out: 2B IC50, replicon 2B); 0.762 nM in assay [4] (setting [10]); 3 pM in assay [5].
As for `CCC(CC)c1ncc(C2Oc3cc(-c4cnc([C@@H]5CCCN5C(=O)[C@@H](NC(=O)OC)C(C)C)[nH]4)cc(F)c3-c3cc4cc(-c5cnc([C@@H]6CCCN6C(=O)C(NC(=O)OC)C6CCOC(C)(C)C6)[nH]5)ccc4n32)s1` (single isomer, unassigned) [Compound 445], the IC50 in assay [1] amounted to 2.8 pM; in assay [2] (setting [6]), 0.107 nM; in assay [3] (read-out: 2B IC50, replicon 2B), 0.096 nM; in assay [4] (setting [10]), 0.949 nM; in assay [5], 4.6 pM.

The values above are taken from US9555038B2, “Heterocycle-substituted tetracyclic compounds and methods of use thereof for the treatment of viral diseases” (Merck Sharp & Dohme Corp., priority 2013, dated 2017).
